Data as given in ChEMBL document CHEMBL5223095, “Structure activity relationship of N-1 substituted 1,5-naphthyrid-2-one analogs of oxabicyclooctane-linked novel bacterial topoisomerase inhibitors as broad-spectrum antibacterial agents (Part-9)” (Bioorg Med Chem Lett, 2022).
Converted amounts (≈) assume the structure as drawn.

What was measured:
Assay type in all cases: functional
Staphylococcus aureus = test: Antibacterial activity against methicillin-resistant Staphylococcus aureus OITII-971 assessed as bacterial growth inhibition by CLSI protocol agar-based assay
Acinetobacter baumannii = test: Antibacterial activity against Acinetobacter baumannii IID876 assessed as bacterial growth inhibition by CLSI protocol agar-based assay
Pseudomonas aeruginosa = test: Antibacterial activity against Pseudomonas aeruginosa PAO1 assessed as bacterial growth inhibition by CLSI protocol agar-based assay
Escherichia coli = test: Antibacterial activity against Escherichia coli ATCC 25922 assessed as bacterial growth inhibition by CLSI protocol agar-based assay
Streptococcus pneumoniae = test: Antibacterial activity against Streptococcus pneumoniae IID553 assessed as bacterial growth inhibition by CLSI protocol agar-based assay
Enterococcus faecium = test: Antibacterial activity against Vanomycin-resistant Enterococcus faecium assessed as bacterial growth inhibition by CLSI protocol agar-based assay

Row | Compound | MIC (Staphylococcus aureus) | MIC (Acinetobacter baumannii) | MIC (Pseudomonas aeruginosa) | MIC (Escherichia coli) | MIC (Streptococcus pneumoniae) | MIC (Enterococcus faecium)
1 | COc1ccc2ncc(F)c(C[C@H](O)C34CCC(NCc5ccc6c(n5)NC(=O)CO6)(CC3)CO4)c2n1 | 0.02 µg/mL (≈ 0.0393 µM) | 0.5 µg/mL (≈ 0.981 µM) | 8 µg/mL (≈ 15.7 µM) | 2 µg/mL (≈ 3.93 µM) | 0.05 µg/mL (≈ 0.0981 µM) | 0.5 µg/mL (≈ 0.981 µM)
2 | O=c1ccc2ncc(F)c(C[C@H](O)C34CCC(NC/C=C/c5cc(F)ccc5F)(CC3)CO4)c2n1CCO | 0.5 µg/mL (≈ 0.944 µM) | 1 µg/mL (≈ 1.89 µM) | 64 µg/mL (≈ 121 µM) | 16 µg/mL (≈ 30.2 µM) | 0.5 µg/mL (≈ 0.944 µM) | 16 µg/mL (≈ 30.2 µM)
3 | O=c1ccc2ncc(F)c(CCC34CCC(NCc5cc(-c6cccs6)on5)(CC3)CO4)c2n1CCO | 4 µg/mL (≈ 7.62 µM) | 128 µg/mL (≈ 244 µM) | > 64 µg/mL | > 128 µg/mL | 4 µg/mL (≈ 7.62 µM) | 64 µg/mL (≈ 122 µM)
4 | O=C1COc2ccc(CNC34CCC([C@@H](O)Cc5c(F)cnc6ccc(=O)n(CCO)c56)(CC3)OC4)nc2N1 | 0.031 µg/mL (≈ 0.0575 µM) | 4 µg/mL (≈ 7.41 µM) | 16 µg/mL (≈ 29.7 µM) | 32 µg/mL (≈ 59.3 µM) | 0.125 µg/mL (≈ 0.232 µM) | 2 µg/mL (≈ 3.71 µM)
5 | O=c1ccc2ncc(F)c(CCC34CCC(NCc5cn(-c6ncccn6)cn5)(CC3)CO4)c2n1CCO | > 32 µg/mL | > 32 µg/mL | > 128 µg/mL | > 32 µg/mL | > 32 µg/mL | > 32 µg/mL
6 | O=c1ccc2ncc(F)c(C[C@H](O)C34CCC(NCc5cc6c(cn5)OCCO6)(CC3)CO4)c2n1CCO | 2 µg/mL (≈ 3.8 µM) | 64 µg/mL (≈ 122 µM) | > 128 µg/mL | 128 µg/mL (≈ 243 µM) | 2 µg/mL (≈ 3.8 µM) | 32 µg/mL (≈ 60.8 µM)
